Source: the NIST ThermoML archive (doi:10.1021/je049633+)

Assay: xn = mol fraction of the nth substance listed
Conditions: Gas, isochoric method

[N-]=[N+]=O [nitrous oxide] + O=C=O
Conditions | molar volume [m3/mol]
238.1 K, 1004.5 kPa, x2 = 0.5959 | 0.001705
238.1 K, 1194.6 kPa, x2 = 0.6953 | 0.001286
243.07 K, 1032.4 kPa, x2 = 0.5959 | 0.001705
243.09 K, 1317 kPa, x2 = 0.6953 | 0.001286
248.05 K, 1059.7 kPa, x2 = 0.5959 | 0.001706
248.11 K, 1355.8 kPa, x2 = 0.6953 | 0.001286
253.04 K, 1086.8 kPa, x2 = 0.5959 | 0.001706
253.1 K, 1393.5 kPa, x2 = 0.6953 | 0.001287
258.09 K, 2081.3 kPa, x2 = 0.1499 | 0.000805
258.11 K, 1431.2 kPa, x2 = 0.6953 | 0.001287
263.02 K, 2626.7 kPa, x2 = 0.9071 | 0.000638
263.06 K, 2148.3 kPa, x2 = 0.1499 | 0.000805
263.08 K, 1140.7 kPa, x2 = 0.5959 | 0.001707
263.08 K, 1469 kPa, x2 = 0.6953 | 0.001287
263.09 K, 2245.7 kPa, x2 = 0.2607 | 0.000759
263.1 K, 2436.3 kPa, x2 = 0.4754 | 0.000668
268.02 K, 2719.9 kPa, x2 = 0.9071 | 0.000635
268.03 K, 2212.6 kPa, x2 = 0.1499 | 0.000806
268.04 K, 1168.2 kPa, x2 = 0.5959 | 0.001707
268.05 K, 1505.5 kPa, x2 = 0.6953 | 0.001287
268.08 K, 2515.8 kPa, x2 = 0.4754 | 0.000669
268.08 K, 2813.7 kPa, x2 = 0.3585 | 0.000579
268.08 K, 2907.1 kPa, x2 = 0.7478 | 0.000559
272.93 K, 1194.4 kPa, x2 = 0.5959 | 0.001708
272.93 K, 3330.4 kPa, x2 = 0.6929 | 0.000486
272.94 K, 1541.4 kPa, x2 = 0.6953 | 0.001288
272.95 K, 2909.1 kPa, x2 = 0.3585 | 0.00058
272.98 K, 3090.5 kPa, x2 = 0.0902 | 0.000512
273.04 K, 2808.9 kPa, x2 = 0.9071 | 0.000636
273.05 K, 2384.1 kPa, x2 = 0.2607 | 0.000759
273.06 K, 3007.9 kPa, x2 = 0.7478 | 0.000559
273.07 K, 2593.6 kPa, x2 = 0.4754 | 0.000669
273.12 K, 2276.8 kPa, x2 = 0.1499 | 0.000806
277.82 K, 3196.6 kPa, x2 = 0.0902 | 0.000513
277.86 K, 3791 kPa, x2 = 0.6099 | 0.000401
277.87 K, 3104 kPa, x2 = 0.7478 | 0.000559
277.94 K, 3453.5 kPa, x2 = 0.6929 | 0.000486
282.66 K, 3300.1 kPa, x2 = 0.0902 | 0.000513
282.82 K, 2743.7 kPa, x2 = 0.4754 | 0.000669
282.82 K, 3939.5 kPa, x2 = 0.6099 | 0.000401
282.83 K, 1245.4 kPa, x2 = 0.5959 | 0.001708
282.83 K, 1612.9 kPa, x2 = 0.6953 | 0.001288
282.83 K, 4250.2 kPa, x2 = 0.8378 | 0.00036
282.84 K, 3094.9 kPa, x2 = 0.3585 | 0.00058
282.9 K, 2980 kPa, x2 = 0.9071 | 0.000636
283.01 K, 2401.3 kPa, x2 = 0.1499 | 0.000806
283.01 K, 2518.2 kPa, x2 = 0.2607 | 0.000759
283.01 K, 3203.9 kPa, x2 = 0.7478 | 0.00056
283.01 K, 3574.6 kPa, x2 = 0.6929 | 0.000486
292.79 K, 3511.2 kPa, x2 = 0.0902 | 0.000513
292.89 K, 4229.6 kPa, x2 = 0.6099 | 0.000401
292.97 K, 1685.2 kPa, x2 = 0.6953 | 0.001289
292.97 K, 2524.4 kPa, x2 = 0.1499 | 0.000806
292.98 K, 1297.8 kPa, x2 = 0.5959 | 0.001709
292.98 K, 3279.6 kPa, x2 = 0.3585 | 0.00058
292.99 K, 3397 kPa, x2 = 0.7478 | 0.00056
292.99 K, 4597 kPa, x2 = 0.8378 | 0.00036
293.06 K, 2897.6 kPa, x2 = 0.4754 | 0.000669
293.06 K, 3153.2 kPa, x2 = 0.9071 | 0.000636
293.06 K, 3809.7 kPa, x2 = 0.6929 | 0.000486
293.11 K, 2651.8 kPa, x2 = 0.2607 | 0.00076
297.92 K, 4370.8 kPa, x2 = 0.6099 | 0.000401
298.04 K, 1323.7 kPa, x2 = 0.5959 | 0.001709
298.04 K, 2970.8 kPa, x2 = 0.4754 | 0.000669
298.04 K, 3235.8 kPa, x2 = 0.9071 | 0.000636
298.04 K, 3923.4 kPa, x2 = 0.6929 | 0.000486
298.05 K, 3617.5 kPa, x2 = 0.0902 | 0.000513
298.06 K, 3490.8 kPa, x2 = 0.7478 | 0.00056
299.02 K, 4795.1 kPa, x2 = 0.8378 | 0.00036
302.04 K, 2647.7 kPa, x2 = 0.1499 | 0.000807
303.02 K, 3458.7 kPa, x2 = 0.3585 | 0.00058
303.13 K, 2781.5 kPa, x2 = 0.2607 | 0.00076
307.87 K, 4646.1 kPa, x2 = 0.6099 | 0.000401
307.97 K, 3546.3 kPa, x2 = 0.3585 | 0.00058
308 K, 1375.9 kPa, x2 = 0.5959 | 0.00171
308 K, 1790.6 kPa, x2 = 0.6953 | 0.00129
308 K, 4148.1 kPa, x2 = 0.6929 | 0.000486
308.01 K, 3399.4 kPa, x2 = 0.9071 | 0.000637
308.02 K, 3818.3 kPa, x2 = 0.0902 | 0.000513
308.03 K, 3676.1 kPa, x2 = 0.7478 | 0.00056
308.07 K, 2845 kPa, x2 = 0.2607 | 0.00076
308.09 K, 5087.6 kPa, x2 = 0.8378 | 0.00036
308.13 K, 3117.6 kPa, x2 = 0.4754 | 0.00067
312.22 K, 2766.9 kPa, x2 = 0.1499 | 0.000807
317.84 K, 4915.4 kPa, x2 = 0.6099 | 0.000401
318.01 K, 2971.6 kPa, x2 = 0.2607 | 0.000761
318.02 K, 5401.8 kPa, x2 = 0.8378 | 0.000361
318.04 K, 3722.1 kPa, x2 = 0.3585 | 0.000581
318.05 K, 4013.5 kPa, x2 = 0.0902 | 0.000513
318.11 K, 1427.6 kPa, x2 = 0.5959 | 0.001711
318.11 K, 3261.7 kPa, x2 = 0.4754 | 0.00067
318.12 K, 1861.3 kPa, x2 = 0.6953 | 0.00129
318.12 K, 3563 kPa, x2 = 0.9071 | 0.000637
318.12 K, 4371.8 kPa, x2 = 0.6929 | 0.000486
318.13 K, 3860.5 kPa, x2 = 0.7478 | 0.00056
322.91 K, 5554.6 kPa, x2 = 0.8378 | 0.000361
323.11 K, 2885.7 kPa, x2 = 0.1499 | 0.000807
323.12 K, 5055.4 kPa, x2 = 0.6099 | 0.000401
327.94 K, 3893.1 kPa, x2 = 0.3585 | 0.000581
327.98 K, 3097.5 kPa, x2 = 0.2607 | 0.000761
328 K, 5712 kPa, x2 = 0.8378 | 0.000361
328.09 K, 1478.4 kPa, x2 = 0.5959 | 0.001712
328.09 K, 3404 kPa, x2 = 0.4754 | 0.00067
328.1 K, 1930.7 kPa, x2 = 0.6953 | 0.001291
328.1 K, 3722.5 kPa, x2 = 0.9071 | 0.000637
328.1 K, 4040.6 kPa, x2 = 0.7478 | 0.000561
328.1 K, 4589.4 kPa, x2 = 0.6929 | 0.000487
328.11 K, 4212.5 kPa, x2 = 0.0902 | 0.000514
328.11 K, 5188.2 kPa, x2 = 0.6099 | 0.000402
333.09 K, 3003.3 kPa, x2 = 0.1499 | 0.000808
333.1 K, 5868.1 kPa, x2 = 0.8378 | 0.000361
338.03 K, 4402.1 kPa, x2 = 0.0902 | 0.000514
338.07 K, 1529 kPa, x2 = 0.5959 | 0.001712
338.07 K, 4218.4 kPa, x2 = 0.7478 | 0.000561
338.07 K, 4804.3 kPa, x2 = 0.6929 | 0.000487
338.08 K, 1999.6 kPa, x2 = 0.6953 | 0.001291
338.08 K, 3880.7 kPa, x2 = 0.9071 | 0.000637
338.08 K, 4065.8 kPa, x2 = 0.3585 | 0.000581
338.09 K, 3223.8 kPa, x2 = 0.2607 | 0.000761
338.09 K, 5449.4 kPa, x2 = 0.6099 | 0.000402
338.11 K, 3545.6 kPa, x2 = 0.4754 | 0.000671
343.08 K, 3119.8 kPa, x2 = 0.1499 | 0.000808
343.08 K, 5578.9 kPa, x2 = 0.6099 | 0.000402
348.02 K, 4592.8 kPa, x2 = 0.0902 | 0.000514
348.05 K, 3346.9 kPa, x2 = 0.2607 | 0.000762
348.05 K, 3684.7 kPa, x2 = 0.4754 | 0.000671
348.06 K, 1579.5 kPa, x2 = 0.5959 | 0.001713
348.06 K, 2068.1 kPa, x2 = 0.6953 | 0.001292
348.06 K, 4036.9 kPa, x2 = 0.9071 | 0.000638
348.06 K, 4394.9 kPa, x2 = 0.7478 | 0.000561
348.06 K, 5017.1 kPa, x2 = 0.6929 | 0.000487
348.07 K, 4234.7 kPa, x2 = 0.3585 | 0.000582
353.04 K, 3235.1 kPa, x2 = 0.1499 | 0.000809
357.91 K, 4567 kPa, x2 = 0.7478 | 0.000561
357.95 K, 2135.6 kPa, x2 = 0.6953 | 0.001293
357.99 K, 1629.5 kPa, x2 = 0.5959 | 0.001714
357.99 K, 5226.8 kPa, x2 = 0.6929 | 0.000487
358.02 K, 3469.7 kPa, x2 = 0.2607 | 0.000762
358.02 K, 3823.2 kPa, x2 = 0.4754 | 0.000671
358.03 K, 4191.9 kPa, x2 = 0.9071 | 0.000638
358.04 K, 3292.6 kPa, x2 = 0.1499 | 0.000809
358.04 K, 4401.6 kPa, x2 = 0.3585 | 0.000582
